Two compounds from publication PMC6810216, “Human-to-Human Transmission of Influenza A(H3N2) Virus with Reduced Susceptibility to Baloxavir, Japan, February 2019” (Emerging Infectious Diseases, 2019) can be followed below.

The IC50 is the concentration at which inhibition is half-maximal.

Experiment [1] relates to influenza A(H3N2) viruses isolated in the 2018–19 season in Japan. Nature of the experiment: microbe, parasite or virus in culture. To be noted: n = 83, read-out: Median IC50 + SD. Type of experiment: cell-based.
In experiment [2] the target is neuraminidase (NA) of A(H3N2) of 2018–19 (Influenza A virus (H3N2), UniProt A0A193ACB1). Type of experiment: biochemical. To be noted: n = 170; read-out: Median IC50 + SD.

For the compound `O=C1c2c(O)c(=O)ccn2N([C@@H]2c3ccccc3SCc3c2ccc(F)c3F)[C@@H]2COCCN12` [Baloxavir, baloxavir acid], in experiment [1], the IC50 was […].
Turning to `CCC(CC)[C@H](NC(C)=O)[C@@H]1[C@H](O)[C@@H](C(=O)O)C[C@H]1N=C(N)N` [Peramivir, peramivir], in experiment [2], the IC50 is 0.13 nM.
